Laboratory results published in patent publication US20060062793A1, “Modified antibodies to prostate-specific membrane antigen and uses thereof” (priority 2004, published 2006).

Columns and labels:
[1] = test system: PSMA-positive CWR22 xenografts; test: deJ591-DM1 efficacy in PSMA-positive CWR22 xenografts in scid mice; assay type: in vivo, mouse
Protocol: (§1) Experiment: Male SCID mice were implanted by serial passage of CWR22 prostate tumor xenograft. […] All treatments were given intravenously. Tumor growth and animal health were continually monitored throughout the study with tumor growth measured every 3 days.
Experiment: Male C.B-17 SCID mice bearing CWR22 xenografts approximately 200 mm^3 in size received IV injections (200 μL constant volume) of the test articles according to the dose and schedule as shown in Table 22.
Male C.B-17 scid mice bearing CWR22 xenografts approximately 200 mm^3 in size received IV injections (200 μL constant volume) of the test articles according to the dose and schedule shown in the Table 23.
The objective of this study was to determine how much the dosing interval could be increased at this dosage before a loss of efficacy in terms of TGD would be observed. […] The growth delays for the other schedules were: q7d, 53.0 days; q21d, 48.0 days; and q28d, 26.9 days. Similar to other studies using the CWR22 xenograft model, no curative responses were observed, with all tumors eventually resuming growth (FIG. 18).
as §1, with “intravenously and on a schedule of every three days for 5 doses.” for “intravenously.”
as §1, with “intravenously and on a schedule of every seven days for 5 doses.” for “intravenously.”

prostate tissue = test: Immunohistochemistry of DOTA conjugated deJ591
Protocol: Immunohistochemistry was performed on the DOTA conjugated, partially purified, bulk intermediate deJ591.

LNCaP tumor sections = assay type: in vivo, mouse
[2] = test system: hormone-independent prostate cancer; test: Phase I trial of trace-labeled 131I-J591 (murine) in hormone-independent prostate cancer patients; assay type: in vivo, human
Protocol: Hormone-independent patients with rising PSA levels and acceptable hematologic, hepatic and renal function received a single dose of murine mAb J591. Doses are escalated (from 0.5-300 mg) in groups of three to six patients. Each dose included ≦1.0 mg J591 labeled with 10 mCi ^131I iodine as a tracer plus “cold” mAb. The dose levels used ranged from 0.5 to 300.0 mg as follows: 0.5 mg, 1.0 mg, 2.0 mg, 5.0 mg, 10 mg, 25 mg, 50 mg, 100 mg, 125 mg, 150 mg, 200 mg, 250 mg, and 300 mg. Blood and urine were collected to monitor pharmacokinetics, toxicity and human anti-mouse antibody (HAMA) response. Patients were imaged on the day of injection (day 0), as well as days 2, 4 and 6 to track mAb targeting.

[3] = test system: androgen-independent PSMA-positive 22RV1 xenograft; test: deJ591-DM1 efficacy in castrate or intact scid mice bearing 22RV1 xenograft; assay type: in vivo, mouse
Protocol: Prostate tumors can be broadly classified as either androgen-dependent or androgen-independent. […] The 22RV1 cell line was originally developed as androgen-independent and can be grown as a xenograft in C.B-17 scid mice that have been left either intact or castrated. […] This was approximately twice the time required for the tumors of intact mice to reach 1000 mm^3 (9.3 days). C.B-17 scid mice bearing CWR22 xenografts approximately 200 mm^3 in size received IV injections (200 μL constant volume) of the test articles according to the dosage and schedule shown in the Table 24.

[4] = test system: metastatic androgen-independent prostate cancer; test: Phase 1 ascending dose trial of DM1 conjugated deJ591 in metastatic androgen-independent prostate cancer; assay type: in vivo, human
Protocol: Based upon emerging clinical safety and PK, repeat dosing at four week intervals was subsequently permitted.
DLT is defined as the occurrence of one or more of the following: • Hematologic: Grade 4 thrombocytopenia (platelet count <10,000/mm3) • Requirement for platelet transfusion and/or other methods to increase platelet count • Febrile neutropenia (ANC<1000/mm^3 concurrent with a temperature >38.5° C.). (Per the Infection/Febrile Neutropenia subsection of the NCI CTC version 2.0, febrile neutropenia is, by definition, a >Grade 3 toxicity) • Grade 4 neutropenia without fever of >7 days duration • Grade 3 neutropenia requiring granulocyte colony-stimulating factor (G-CSF) administration • Grade 4 anemia (hemoglobin <6.5 g/dL) • Grade 3 anemia (hemoglobin 6.5-<8.0 g/dL) in a subject receiving EpogenÒNon-hematologic • Any Grade 3 non-hematologic toxicity considered by the investigator to be possibly related to study drugMTD is defined as the highest dose level with an observed incidence of DLT in no more than 1 out of 6 subjects. […]
The starting dose is 18 mg/m2. […] Dose escalation will continue until DLT and MTD are determined. […] Subsequent dose escalation and enrollment will be determined by the number and grade of toxicities observed in these two additional subjects. […] The previous dose level will be evaluated as potential MTD. […]

[5] = test system: PSMA-positive human LNCaP tumors; test: Biodistribution of 111In labeled MAbs in nude mice bearing LNCaP tumors; assay type: in vivo, mouse
Protocol: (§2) Prior to use, the cells were trypsinized, counted and suspended in Matrigel (Collaborative Biomedical Products, Bedford, Mass.). Nu/Nu Balb C mice 8-10 weeks of age were inoculated, in the right and left flanks, with a suspension of 5×10^6 LNCaP cells in Matrigel (BD Biosciences, Bedford Mass.). After a period of 14-18 days, tumors (100-300 mg) had developed. The PSMA-negative DU145 and PC3 cells were implanted in nude mice in an identical manner.
(§3) The PSMA-positive and PSMA-negative tumor bearing mice were injected, via the tail vein, with 80 KBq of the iodinated MAb (400 MBq/mg) in 200 μL of PBS (pH 7.4, 0.2% BSA). Groups of animals (3-8/group) were sacrificed after 2, 4 or 6 days. The major organs and tumors were recovered. The tissue samples were weighed and counted, with appropriate standards in an automatic NaI(Tl) counter. These measured relative activity data (cpm) were background corrected and expressed as a percentage of the injected dose per gram (% ID/g). […] J415, J591 and 7E11 were labeled with ^111In (100 MBq/mg). 80 KBq of the ^111In labeled MAbs were injected in groups of animals. The % ID/g in various organs and tumor tissues was determined at 2-6 days post injection in a similar way as described for ^131I labeled MAbs.

PSMA-negative PC3 tumors = assay type: in vivo, mouse; conditions: 4 days post injection, PC3 tumors (n=10)
Protocol: as §2, §3
(§4) The uptake in lungs, kidney, muscle was similar with all three antibodies.

[6] = test system: PSMA-negative DU145 tumors; assay type: in vivo, mouse; conditions: 4 days post injection, DU145 tumors (n=6)
Protocol: as §2, §3, §4

[7] = test system: recurrent, progressing prostate cancer; test: Phase I trial of four weekly doses of 111In-DOTA-deJ591; design: species or system human; conditions: in vivo
Protocol: Patients with recurrent, progressing prostate cancer received four weekly doses of ^111In-DOTA-deJ591. Doses were escalated in cohorts of three patients and ranged from 62.5-500 mg/m2 (total). […] After the first dose, patients were imaged on the day of injection (day 0) and days 1, 2, 4 and 7.
Serum PK, immune reaction and toxicity were evaluated after each dose for a minimum of 12 weeks.

LNCaP tumor = test: Gamma camera imaging of nude mice with 111In-DOTA-J591; assay type: in vivo, mouse; conditions: days 1-6
Protocol: For the imaging studies, animals were injected with 2 MBq of ^111In-DOTA-J591. On days 1, 2, 3, 4 and 6 post-injection, the mice were sedated with ketamine/xylazine 100 mg/kg/10 mg/kg IP. The mice were imaged with a gamma camera (Transcam, ADAC Laboratories, Milpitas, Calif.) equipped with a pinhole collimator. The images were acquired in a 256×256 matrix for 1000 seconds using a 20% window of 245 KeV photopeak of ^111In.

[8] = test system: hormone refractory prostate cancer; test: 111In-DOTA-deJ591 targeting of hormone refractory prostate cancer (single 20 mg dose, imaging); assay type: in vivo, human
[9] = 14.5 mg/kg, 7 and 14 day dosing interval

COc1cc2cc(c1Cl)N(C)C(=O)C[C@H](OC(=O)[C@H](C)N(C)C(C)=O)[C@]1(C)O[C@H]1[C@H](C)[C@@H]1C[C@@](O)(NC(=O)O1)[C@H](OC)/C=C/C=C(\C)C2 [Maytansine, reference compound]
Tumor Growth Delay ([1]; 240 μg/kg (240 μg/kg DM1-equivalents), qdX5, IV, Comparison I): 17.7 days

DOTA-deJ591
tissue specificity by immunohistochemistry (prostate tissue): specific to prostate tissue
reactivity by immunohistochemistry (prostate tissue; compared with naked deJ591): equivalent to the naked deJ591 antibody

^131I-J591: murine mAb J591 labeled with 131I iodine
binding pattern, ex vivo autoradiography (LNCaP tumor sections; incubated directly on the tissue section): homogeneous binding pattern
adverse events related to the murine antibody ([2]; 33 patients): Only one patient had an adverse event related to the murine antibody
positive monoclonal antibody scans among patients with positive soft tissue (CT scans) ([2]; eight out of nine): about 90%
human anti-murine antibody (HAMA) response ([2]; human, in vivo): Eight out of sixteen evaluable patients
patients in whom known sites of prostate cancer metastases can be imaged ([2]; patients with disease sites imaged by conventional studies): approximately 80%
positive monoclonal antibody scans among patients with positive bone scans ([2]; twenty-four out of twenty-seven): about 90%

deJ591-DM1: deJ591 conjugated via SPP disulfide linker to the maytansinoid cytotoxin DM1
TGD compared to DM1 at equivalent dose and schedule ([3]; androgen-intact mice, q3d schedule): better TGD
dose-limiting toxicity ([4]; highest dose level 343 mg/m^2): Only one DLT, an uncomplicated febrile neutropenia
tumor response ([4]; one patient, 264 mg/m^2): PR by RECIST criteria
resumption of normal growth kinetics after the last dose [1, 9]: approximately 30 days
tumor growth [1, 9]: apparent block in tumor growth
suppression of tumor growth following the last administered dose ([1]; 14.5 mg/kg, every three days for 5 doses, IV): approximately 20 days
Efficacious dosage in SCID mouse xenografts, DM1-Equivalents received ([1]; SCID mouse xenografts, DM1-equivalents): ˜0.72 mg/m^2
tumor growth inhibitory effect ([1]; doses and schedules of Comparison I, non-curative): substantial tumor growth inhibitory effect
effect on large tumors (500 to 2000 mm^3) ([1]; second course, 12.93 mg/kg): potent regressions in large tumors

J591: murine monoclonal antibody to the extracellular domain of human PSMA; hybridoma ATCC HB-12126
intra-tumoral distribution pattern (LNCaP tumor sections; 131I-labeled, 4 to 6 days after intravenous injection): distinct preferential accumulation in areas of viable tumor
kinetics of blood clearance [5]: faster compared to 7E11

^131I-deJ591
tumor uptake (PSMA-negative PC3 tumors): 0.66±0.07 % ID/g
tumor uptake [6]: 0.55±0.03 % ID/g

^111In-DOTA-deJ591
mAb targeting to non-prostate cancer sites [7]: No mAb targeting to non-prostate cancer sites was noted
tumor accumulation on serial gamma camera images (LNCaP tumor): intense tumor accumulation
Plasma clearance (T1/2) ([8]; 20 mg deJ591): 34 ± 5 h
Liver uptake ([8]; day 6): 27±1.7%
accumulation in the prostate gland ([8]; patients with intact but irradiated prostate): generally minimal
absorbed dose by the liver ([8]; with 111In): 2.8±0.25 rads/mCi

MLN2704
Tumor Growth Delay ([3]; Castrate mice, 22RV1 xenograft, 240 μg/kg DM1-equivalents, q7dX5): 21.4 days
